Patent publication US8741836B2, “Polypeptides” (Novo Nordisk A/S, priority 2011, dated 2014)
Starred links: 1 amine or outer side, 2 acyl side, 3 side chain; linkers in the order of their positions; H or OH if unused. Positions of bridges follow the written chain, without caps; N, C: chain ends. Residues, ends and D or L forms follow the SMILES beside them. *: point of attachment. C20 diacid = O=C(O)CCCCCCCCCCCCCCCCCCC(=O)*; γGlu = O=C(O)[C@H](CCC(=O)[*:2])N[*:1]

Tested on: ad libitum fed rat
Assay: Assay (I) efficacy testing on appetite (food intake) using an ad libitum fed rat model
Format: in vivo, Sprague Dawley (SD) rats
Conditions: 3 nmol/kg
Excerpt: In the following examples reference is made to the following Assays: • Assay (I)—Experimental protocol for efficacy testing on appetite using an ad libitum fed rat model • ASSAY (II)a—Functional assay—Human calcitonin and amylin receptor assay • ASSAY (II)b—Functional assay—Rat calcitonin and rat amylin receptor assays • ASSAY (III)—ThT fibrillation assays for the assessment of physical stability of protein formulations • ASSAY (IV)—Determination of solubility • ASSAY (V)—Determination of binding to the human amylin receptor • ASSAY (VI)—Determination of the binding to the rat amylin receptor • ASSAY (VII)—Determination of binding to the human calcitonin receptor • ASSAY (VIII)—Determination of binding to the rat calcitonin receptor • ASSAY (IX)—pK—Determination of T½ in mini-pig • ASSAY (X)—pK—Determination of T½ in rat Assay (I)—Experimental protocol for Efficacy Testing on Appetite Using an Ad Libitum Fed Rat Model
Sprague Dawley (SD) rats from Taconic Europe, Denmark are used for the experiments. The rats have a body weight 200-250 g at the start of experiment. The rats arrive at least 10-14 days before start of experiment to allow acclimatization to experimental settings. During this period the animals are handled at least 2 times. After arrival rats are housed individually for one week in a reversed light/dark phase (meaning that lights are off during daytime and on during nighttime) […]. Since rats are normally active and eat their major part of their daily food intake during the dark period, rats are dosed in the morning right before lights are turned off. This set-up results in the lowest data variation and highest test sensitivity. The experiment is conducted in the rats' home cages and rats have free access to food and water throughout the acclimatization period and the experiment period. Each dose of derivative is tested in a group of 5-8 rats. A vehicle group of 6-8 rats is included in each set of testing. Rats are dosed once according to body weight with a 0.01-3 mg/kg solution administered intraperitoneally (ip), orally (po) or subcutaneously (sc). The time of dosing is recorded for each group. After dosing, the rats are returned to their home cages, where they then have access to food and water. The food consumption is recorded individually continuously by on-line registration or manually every hour for 7 hours, and then after 24 h and sometimes 48 h. At the end of the experimental session, the animals are euthanised.
The individual data are recorded in Microsoft excel sheets. Outliers are excluded after applying the Grubbs statistical evaluation test for outliers, and the result is presented graphically using the GraphPad Prism program.

| Compound | Food intake reduction 0-24 h 3 nmol/kg (%) | Food intake reduction 24-48 h 3 nmol/kg (%) |
| --- | --- | --- |
| CC[C@H](C)[C@H](NC(=O)[C@@H]1CCCN1C(=O)CNC(=O)[C@H](Cc1ccccc1)NC(=O)[C@H](CC(N)=O)NC(=O)[C@H](CC(N)=O)NC(=O)[C@H](CO)NC(=O)[C@H](CO)NC(=O)[C@H](CCCNC(=N)N)NC(=O)[C@H](Cc1c[nH]cn1)NC(=O)[C@H](CC(C)C)NC(=O)[C@H](Cc1ccccc1)NC(=O)[C@H](CCC(=O)O)NC(=O)[C@H](C)NC(=O)[C@H](CC(C)C)NC(=O)[C@H](CCCNC(=N)N)NC(=O)[C@H](CCC(N)=O)NC(=O)[C@@H](NC(=O)[C@H](C)NC(=O)[C@@H]1CSSC[C@H](NC(=O)CC[C@H](NC(=O)CCCCCCCCCCCCCCCCCCC(=O)O)C(=O)O)C(=O)NCC(=O)N[C@@H]([C@@H](C)O)C(=O)N[C@@H](C)C(=O)N[C@@H]([C@@H](C)O)C(=O)N1)[C@@H](C)O)C(=O)N[C@@H](CC(C)C)C(=O)N1CCC[C@H]1C(=O)N1CCC[C@H]1C(=O)N[C@H](C(=O)N[C@@H](CCC(=O)O)C(=O)N[C@H](C(=O)NCC(=O)N[C@@H](CO)C(=O)NCC(=O)N[C@H](C(=O)N[C@@H](Cc1ccc(O)cc1)C(N)=O)[C@@H](C)O)C(C)C)[C@@H](C)O [Example 3, N-alpha-[(S)-4-Carboxy-4-(19-carboxynonadecanoylamino)butyryl]-[des1,Gly3,Glu14,His17,Arg18,Glu31,Gly35]-pramlintide] ({C20 diacid-γGlu}-CGTATCATQRLAEFLHRSSNNFGPILPPTEVGSGTY-NH2; disulfide 1-6) | 37 | 32 |
| CC[C@H](C)[C@H](NC(=O)[C@@H]1CCCN1C(=O)CNC(=O)[C@H](Cc1ccccc1)NC(=O)[C@H](CC(N)=O)NC(=O)[C@H](CC(N)=O)NC(=O)[C@H](CO)NC(=O)[C@H](CO)NC(=O)[C@H](Cc1c[nH]cn1)NC(=O)[C@H](Cc1c[nH]cn1)NC(=O)[C@H](CC(C)C)NC(=O)[C@H](Cc1ccccc1)NC(=O)[C@H](CCC(=O)O)NC(=O)[C@H](C)NC(=O)[C@H](CC(C)C)NC(=O)[C@H](CCCNC(=N)N)NC(=O)[C@H](CCC(N)=O)NC(=O)[C@@H](NC(=O)[C@H](C)NC(=O)[C@@H]1CSSC[C@H](NC(=O)[C@H](CCCCN)NC(=O)[C@H](CCC(=O)O)NC(=O)CC[C@H](NC(=O)CCCCCCCCCCCCCCCCCCC(=O)O)C(=O)O)C(=O)N[C@@H](CC(N)=O)C(=O)N[C@@H]([C@@H](C)O)C(=O)N[C@@H](C)C(=O)N[C@@H]([C@@H](C)O)C(=O)N1)[C@@H](C)O)C(=O)N[C@@H](CC(C)C)C(=O)N1CCC[C@H]1C(=O)N1CCC[C@H]1C(=O)N[C@H](C(=O)N[C@@H](CC(N)=O)C(=O)N[C@H](C(=O)NCC(=O)N[C@@H](CO)C(=O)N[C@@H](CC(N)=O)C(=O)N[C@H](C(=O)N[C@@H](Cc1ccc(O)cc1)C(N)=O)[C@@H](C)O)C(C)C)[C@@H](C)O [Example 26, N-alpha-[(S)-4-Carboxy-4-(19-carboxynonadecanoylamino)butyryl]-Glu-[Glu14,His17]-pramlintide] ({C20 diacid-γGlu}-EKCNTATCATQRLAEFLHHSSNNFGPILPPTNVGSNTY-NH2; disulfide 3-8 (inferred)) | 46 | 39 |
| CC[C@H](C)[C@H](NC(=O)[C@@H]1CCCN1C(=O)CNC(=O)[C@H](Cc1ccccc1)NC(=O)[C@H](CC(N)=O)NC(=O)[C@H](CC(N)=O)NC(=O)[C@H](CO)NC(=O)[C@H](CO)NC(=O)[C@H](Cc1c[nH]cn1)NC(=O)[C@H](Cc1c[nH]cn1)NC(=O)[C@H](CC(C)C)NC(=O)[C@H](Cc1ccccc1)NC(=O)[C@H](CCC(=O)O)NC(=O)[C@H](C)NC(=O)[C@H](CC(C)C)NC(=O)[C@H](CCCNC(=N)N)NC(=O)[C@H](CCC(N)=O)NC(=O)[C@@H](NC(=O)[C@H](C)NC(=O)[C@@H]1CSSC[C@H](NC(=O)[C@H](CCCCN)NC(=O)CC[C@H](NC(=O)CCCCCCCCCCCCCCCCCCC(=O)O)C(=O)O)C(=O)N[C@@H](CC(N)=O)C(=O)N[C@@H]([C@@H](C)O)C(=O)N[C@@H](C)C(=O)N[C@@H]([C@@H](C)O)C(=O)N1)[C@@H](C)O)C(=O)N[C@@H](CC(C)C)C(=O)N1CCC[C@H]1C(=O)N1CCC[C@H]1C(=O)N[C@H](C(=O)N[C@@H](CC(N)=O)C(=O)N[C@H](C(=O)NCC(=O)N[C@@H](CO)C(=O)N[C@@H](CC(N)=O)C(=O)N[C@H](C(=O)N[C@@H](Cc1ccc(O)cc1)C(N)=O)[C@@H](C)O)C(C)C)[C@@H](C)O [Example 27, N-alpha-[(S)-4-Carboxy-4-(19-carboxynonadecanoylamino)butyryl]-[Glu14,His17]-pramlintide] ({C20 diacid-γGlu}-KCNTATCATQRLAEFLHHSSNNFGPILPPTNVGSNTY-NH2; disulfide 2-7 (inferred)) | 56 | 53 |
| CC[C@H](C)[C@H](NC(=O)[C@@H]1CCCN1C(=O)CNC(=O)[C@H](Cc1ccccc1)NC(=O)[C@H](CC(N)=O)NC(=O)[C@H](CC(N)=O)NC(=O)[C@H](CO)NC(=O)[C@H](CO)NC(=O)[C@H](CCCNC(=N)N)NC(=O)[C@@H](NC(=O)[C@H](CC(C)C)NC(=O)[C@H](Cc1ccccc1)NC(=O)[C@H](CCC(=O)O)NC(=O)[C@H](C)NC(=O)[C@H](CC(C)C)NC(=O)[C@H](CCCNC(=N)N)NC(=O)[C@H](CCC(N)=O)NC(=O)[C@@H](NC(=O)[C@H](C)NC(=O)[C@@H]1CSSC[C@H](NC(=O)[C@H](Cc2c[nH]cn2)NC(=O)CC[C@H](NC(=O)CCCCCCCCCCCCCCCCCCC(=O)O)C(=O)O)C(=O)N[C@@H](CC(N)=O)C(=O)N[C@@H]([C@@H](C)O)C(=O)N[C@@H](C)C(=O)N[C@@H]([C@@H](C)O)C(=O)N1)[C@@H](C)O)C(C)C)C(=O)N[C@@H](CC(C)C)C(=O)N1CCC[C@H]1C(=O)N1CCC[C@H]1C(=O)N[C@H](C(=O)N[C@@H](CC(N)=O)C(=O)N[C@H](C(=O)NCC(=O)N[C@@H](CO)C(=O)N[C@@H](CC(N)=O)C(=O)N[C@H](C(=O)N[C@@H](Cc1ccc(O)cc1)C(N)=O)[C@@H](C)O)C(C)C)[C@@H](C)O [Example 15] ({C20 diacid-γGlu}-HCNTATCATQRLAEFLVRSSNNFGPILPPTNVGSNTY-NH2; disulfide 2-7 (inferred)) | 56 | 59 |
| CC[C@H](C)[C@H](NC(=O)[C@@H]1CCCN1C(=O)CNC(=O)[C@H](Cc1ccccc1)NC(=O)[C@H](CC(N)=O)NC(=O)[C@H](CC(N)=O)NC(=O)[C@H](CO)NC(=O)[C@H](CO)NC(=O)[C@H](Cc1c[nH]cn1)NC(=O)[C@H](Cc1c[nH]cn1)NC(=O)[C@H](CC(C)C)NC(=O)[C@H](Cc1ccccc1)NC(=O)[C@H](CCC(=O)O)NC(=O)[C@H](C)NC(=O)[C@H](CC(C)C)NC(=O)[C@H](CCCNC(=N)N)NC(=O)[C@H](CCC(N)=O)NC(=O)[C@@H](NC(=O)[C@H](C)NC(=O)[C@@H]1CSSC[C@H](NC(=O)[C@H](CCC(=O)O)NC(=O)CC[C@H](NC(=O)CCCCCCCCCCCCCCCCCCC(=O)O)C(=O)O)C(=O)N[C@@H](CC(N)=O)C(=O)N[C@@H]([C@@H](C)O)C(=O)N[C@@H](C)C(=O)N[C@@H]([C@@H](C)O)C(=O)N1)[C@@H](C)O)C(=O)N[C@@H](CC(C)C)C(=O)N1CCC[C@H]1C(=O)N1CCC[C@H]1C(=O)N[C@H](C(=O)N[C@@H](CC(N)=O)C(=O)N[C@H](C(=O)NCC(=O)N[C@@H](CO)C(=O)N[C@@H](CC(N)=O)C(=O)N[C@H](C(=O)N[C@@H](Cc1ccc(O)cc1)C(N)=O)[C@@H](C)O)C(C)C)[C@@H](C)O [Example 29, N-alpha-[(S)-4-Carboxy-4-(19-carboxynonadecanoylamino)butyryl]-[Glu1,Glu14,His17]-pramlintide] ({C20 diacid-γGlu}-ECNTATCATQRLAEFLHHSSNNFGPILPPTNVGSNTY-NH2; disulfide 2-7 (inferred); C-terminus assumed) | 15 | 5 |
